SMILES strings stand for the structures.

The ED50 is the dose at which the effect has come halfway, by size or by number of responders.

One assay deals with Sprague-Dawley rats. Briefly: Reversal of Phencyclidine (PCP)-Induced Hyperlocomotor Activity in Rats. The format is in vivo. The conditions noted are these: Rattus norvegicus. The source says: Administration of NMDA receptor antagonists, such as ketamine or phencyclidine (PCP), produces psychotomimetic-like effects in humans that are similar to those symptoms observed in patients with schizophrenia.
Motor activity is monitored by placing individual male, Sprague-Dawley (Harlan, Indianapolis, Ind.) rats in transparent, plastic shoe-box cages of the dimensions 45×25×20 cm, with 1 cm depth of wood chips as bedding, and a metal grill on top of the cage. Motor monitors (Kinder Scientific) consist of a rectangular rack of 12 photobeams arranged in an 8×4 formation, (or a high density grouping of 22 in a 15×7 pattern) at a height of 5 cm, with a second rack (for measuring rearing behaviors) at a height of 15 cm. The shoe box cage is placed inside of these racks, with the racks on a 3 foot high tabletop in an isolated room. A compound of the present invention is dosed (intraperitoneal route (i.p.), non-prodrug) within a range of 0.3-10 mg/kg, 30 minutes prior to a 5 mg/kg challenge dose of phencyclidine (PCP). A compound of the present invention is dosed (oral route, prodrug) within a range of 0.3-30 mg/kg, in overnight fasted rats, 4 hours prior to a 5 mg/kg challenge dose of PCP. On the test day, rats are placed in the test cage and allowed to acclimate for 30 minutes prior to PCP challenge; rats are monitored for an additional 60 minutes following PCP administration.
Data analysis and ED50 calculations are conducted using GraphPad Prism (San Diego, Calif. USA). Power analyses have determined that 8-10 rats per group are needed to have appropriate statistical power for detecting treatment differences (power=0.8). A one-way analysis of variance (ANOVA) with a post-hoc Dunnett's multiple comparison test is conducted on the total 60 minute locomotor activity. ED50 calculations are performed using non-linear regression curve fitting on percent reversal transformed data for each dose.

A further assay concerns Fischer F-344 rats. Put plainly: Attenuation of Stress-Induced Hyperthermia in Rats. The following applies: dose producing 35% reduction in stress-induced hyperthermic response. The format is in vivo, rat. From the text: In many anxiety disorders, hyperthermia occurs as part of the pathology and is considered a symptom of the disease. Compounds which attenuate stress-induced hyperthermia in animals are believed to be useful in treating anxiety disorders in humans. Generalized anxiety disorder is an example of such disorders that may be treated with such compounds. The conventional and minimally-invasive method for analyzing stress-induced hyperthermia is by measuring body temperature, and stress-induced increases in body temperature, via rectal thermometer. Male Fischer F-344 rats (Harlan, Indianapolis, Ind., USA) weighing between 275-350 g are tested. All animals are individually-housed with food and automated water available ad libitum, and maintained on a 12 h light/dark cycle (lights on at 06:00). Animals are fasted for approximately 12-18 hours before the experiment, which is conducted during the light phase. Rats are dosed two hours prior to the experiment by either intraperitoneal (i.p., non-prodrug) or per os (p.o., prodrug) route of administration in a dose volume of 1 mL/kg. […]
After the pretreatment period, rats are taken individually to a brightly lit adjacent room where baseline body temperatures are determined by insertion of a rectal probe lubricated with mineral oil. Body temperature is assessed using a […] […] Ten minutes later a second body temperature measurement is recorded (T2). […]

Consider `N[C@@]1(C(=O)O)C[C@@H](Sc2nnc[nH]2)[C@H]2[C@H](C(=O)O)[C@H]21` [Example 1, (1R,2S,4R,5R,6R)-2-Amino-4-(4H-1,2,4-triazol-3-ylsulfanyl)bicyclo[3.1.0]hexane-2,6-dicarboxylic acid], for which the ED50 in the assay on Sprague-Dawley rats (0.5 h, i.p., 30 minutes prior to 5 mg/kg PCP) amounted to 1.23 mg/kg. The compound also registered a T35 with Fischer F-344 rats (i.p.) of 1.27 mg/kg.

As for `C[C@H](N)C(=O)N[C@@]1(C(=O)O)C[C@@H](Sc2nnc[nH]2)[C@H]2[C@H](C(=O)O)[C@H]21.Cl` [Example 2, (1R,2S,4R,5R,6R)-2-[[(2S)-2-Aminopropanoyl]amino]-4-(1H-1,2,4-triazol-3-ylsulfanyl)bicyclo[3.1.0]hexane-2,6-dicarboxylic acid hydrochloride], the ED50 in the assay on Sprague-Dawley rats (p.o., overnight fasted, 4 hours prior to 5 mg/kg PCP) is 2.94 mg/kg. The compound further gave a T35 in the assay on Fischer F-344 rats (p.o.) of 16.2 mg/kg.

(Values after patent US8318184B2, “MGLU2 agonists” (Eli Lilly and Company, priority 2009, dated 2012).)
